Measured values from PubChem BioAssay AID1963831 (Molecular Pharmacology Branch, DTP, NCI, 2024).
pIC50: −log10 of the molar value.

System: 889142-216-R-J1-PDC complex spheroid viability
Test: Anticancer human tumor 889142-216-R-J1-PDC patient-derived bladder carcinoma cell line growth inhibition [POLQ]
Settings: for pIC50: curve of first compound; for viability, T/C: stronger effect = lower value
Outline: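 Growth inhibition in 3D: complex spheroids (tumor PDC, HUVEC, MSC) treated with POLQ inhibitor combinations; where Cmax unknown, highest tested concentration 10 microM, except SN-38 at 1 microM.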

[1] = second compound 0.0316 µM, first compound 0.0316 µM
[2] = second compound 0.0316 µM, first compound 0.1 µM
[3] = second compound 0.0316 µM, first compound 0.316 µM
[4] = second compound 0.0316 µM, first compound 1 µM
[5] = second compound 0.0316 µM, first compound 3.16 µM
[6] = second compound 0.0316 µM, first compound 10 µM
[7] = second compound 0.1 µM, first compound 0.0316 µM
[8] = second compound 0.1 µM, first compound 0.1 µM
[9] = second compound 0.1 µM, first compound 0.316 µM
[10] = second compound 0.1 µM, first compound 1 µM
[11] = second compound 0.1 µM, first compound 3.16 µM
[12] = second compound 0.1 µM, first compound 10 µM
[13] = second compound 0.316 µM, first compound 0.0316 µM
[14] = second compound 0.316 µM, first compound 0.1 µM
[15] = second compound 0.316 µM, first compound 0.316 µM
[16] = second compound 0.316 µM, first compound 1 µM
[17] = second compound 0.316 µM, first compound 3.16 µM
[18] = second compound 0.316 µM, first compound 10 µM
[19] = second compound 1 µM, first compound 0.0316 µM
[20] = second compound 1 µM, first compound 0.1 µM
[21] = second compound 1 µM, first compound 0.316 µM
[22] = second compound 1 µM, first compound 1 µM
[23] = second compound 1 µM, first compound 3.16 µM
[24] = second compound 1 µM, first compound 10 µM
[25] = second compound 3.16 µM, first compound 0.0316 µM
[26] = second compound 3.16 µM, first compound 0.1 µM
[27] = second compound 3.16 µM, first compound 0.316 µM
[28] = second compound 3.16 µM, first compound 1 µM
[29] = second compound 3.16 µM, first compound 3.16 µM
[30] = second compound 3.16 µM, first compound 10 µM
[31] = second compound 10 µM, first compound 0.0316 µM
[32] = second compound 10 µM, first compound 0.1 µM
[33] = second compound 10 µM, first compound 0.316 µM
[34] = second compound 10 µM, first compound 1 µM
[35] = second compound 10 µM, first compound 3.16 µM
[36] = second compound 10 µM, first compound 10 µM
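Further: spheroids exposed to compounds for seven days.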
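Wherever viability, T/C is given: 100% = DMSO vehicle control viability.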

For `CC(C)n1c(=O)n(C)c2cnc3cc(F)c(-c4ccc(OCCCN5CCCCC5)nc4)cc3c21` + COC1C(OC(N)=O)C(O)C(Oc2ccc3c(O)c(NC(=O)c4ccc(O)c(CC=C(C)C)c4)c(=O)oc3c2C)OC1(C)C, the pIC50 (second compound 0.0316 µM) was < 5.00, the pIC50 (second compound 0.1 µM) was 5.22 and the pIC50 (second compound 0.316 µM) was < 5.00. For the same compound, the pIC50 (second compound 1 µM) was < 5.00, the pIC50 (second compound 3.16 µM) was 5.06 and the pIC50 (second compound 10 µM) was < 5.00. For the same compound, the viability, T/C [1] was 91.2%, the viability, T/C [2] was 86.3% and the viability, T/C [3] was 78.3%. The viability, T/C [4] was 86.5%, the viability, T/C [5] was 54.6% and the viability, T/C [6] was 52.8%. It also gave a viability, T/C [7] of 88.6%, a viability, T/C [8] of 105% and a viability, T/C [9] of 81.7%. For the same compound, the viability, T/C [10] was 85.8%, the viability, T/C [11] was 60.4% and the viability, T/C [12] was 41.5%. It also gave a viability, T/C [13] of 105%, a viability, T/C [14] of 71.1% and a viability, T/C [15] of 85.8%. It also gave a viability, T/C [16] of 76.8%, a viability, T/C [17] of 58.9% and a viability, T/C [18] of 56.8%. For the same compound, the viability, T/C [19] was 113%, the viability, T/C [20] was 86.2% and the viability, T/C [21] was 80.4%. It also gave a viability, T/C [22] of 71.2%, a viability, T/C [23] of 67.1% and a viability, T/C [24] of 52.2%. For the same compound, the viability, T/C [25] was 92.4%, the viability, T/C [26] was 106% and the viability, T/C [27] was 88.7%. The viability, T/C [28] was 71.4%, the viability, T/C [29] was 61.6% and the viability, T/C [30] was 46.9%. The viability, T/C [31] was 94.4%, the viability, T/C [32] was 92.8% and the viability, T/C [33] was 81.3%. For the same compound, the viability, T/C [34] was 88%, the viability, T/C [35] was 65.9% and the viability, T/C [36] was 53.7%.

Work on `CC1COCCN1c1cc(-c2ccnn2C)c2ccnc(-c3ccn[nH]3)c2n1` (stereo unspecified) + COC1C(OC(N)=O)C(O)C(Oc2ccc3c(O)c(NC(=O)c4ccc(O)c(CC=C(C)C)c4)c(=O)oc3c2C)OC1(C)C yielded a pIC50 (second compound 0.0316 µM) of 6.67, a pIC50 (second compound 0.1 µM) of 6.79 and a pIC50 (second compound 0.316 µM) of 6.77. For the same compound, the pIC50 (second compound 1 µM) was 6.53, the pIC50 (second compound 3.16 µM) was 6.47 and the pIC50 (second compound 10 µM) was 6.54. For the same compound, the viability, T/C [1] was 97.8%, the viability, T/C [2] was 56.2% and the viability, T/C [3] was 46.4%. It also gave a viability, T/C [4] of 45%, a viability, T/C [5] of 31.5% and a viability, T/C [6] of 30%. The viability, T/C [7] was 79%, the viability, T/C [8] was 53.3% and the viability, T/C [9] was 40.4%. It also gave a viability, T/C [10] of 41.7%, a viability, T/C [11] of 34.1% and a viability, T/C [12] of 25.9%. For the same compound, the viability, T/C [13] was 90.5%, the viability, T/C [14] was 55.5% and the viability, T/C [15] was 39.6%. For the same compound, the viability, T/C [16] was 45.2%, the viability, T/C [17] was 38.2% and the viability, T/C [18] was 28.6%. The viability, T/C [19] was 77.2%, the viability, T/C [20] was 58.6% and the viability, T/C [21] was 48%. It also gave a viability, T/C [22] of 40.9%, a viability, T/C [23] of 36.2% and a viability, T/C [24] of 25.9%. It also gave a viability, T/C [25] of 71.5%, a viability, T/C [26] of 59.5% and a viability, T/C [27] of 48.8%. It also gave a viability, T/C [28] of 42.8%, a viability, T/C [29] of 35.3% and a viability, T/C [30] of 26.4%. For the same compound, the viability, T/C [31] was 79%, the viability, T/C [32] was 55.8% and the viability, T/C [33] was 49.7%. It also gave a viability, T/C [34] of 43.6%, a viability, T/C [35] of 34.2% and a viability, T/C [36] of 27.5%.

Work on `CC1COCCN1c1cc(C2(S(C)(=N)=O)CC2)nc(-c2ccnc3[nH]ccc23)n1` (stereo unspecified) + COC1C(OC(N)=O)C(O)C(Oc2ccc3c(O)c(NC(=O)c4ccc(O)c(CC=C(C)C)c4)c(=O)oc3c2C)OC1(C)C yielded a pIC50 (second compound 0.0316 µM) of 5.71, a pIC50 (second compound 0.1 µM) of 5.74 and a pIC50 (second compound 0.316 µM) of 6.00. It also gave a pIC50 (second compound 1 µM) of 6.01, a pIC50 (second compound 3.16 µM) of 5.71 and a pIC50 (second compound 10 µM) of 5.74. It also gave a viability, T/C [1] of 99%, a viability, T/C [2] of 93.9% and a viability, T/C [3] of 71.5%. For the same compound, the viability, T/C [4] was 59.8%, the viability, T/C [5] was 42.9% and the viability, T/C [6] was 40.4%. The viability, T/C [7] was 90.8%, the viability, T/C [8] was 102% and the viability, T/C [9] was 82.9%. The viability, T/C [10] was 56.6%, the viability, T/C [11] was 46.1% and the viability, T/C [12] was 39.8%. For the same compound, the viability, T/C [13] was 84.3%, the viability, T/C [14] was 92.8% and the viability, T/C [15] was 80.9%. For the same compound, the viability, T/C [16] was 49.7%, the viability, T/C [17] was 49.6% and the viability, T/C [18] was 38.9%. The viability, T/C [19] was 83.4%, the viability, T/C [20] was 131% and the viability, T/C [21] was 73.6%. For the same compound, the viability, T/C [22] was 60.5%, the viability, T/C [23] was 47.6% and the viability, T/C [24] was 40.4%. The viability, T/C [25] was 100%, the viability, T/C [26] was 98% and the viability, T/C [27] was 85.6%. The viability, T/C [28] was 55.4%, the viability, T/C [29] was 46.2% and the viability, T/C [30] was 45.2%. The viability, T/C [31] was 103%, the viability, T/C [32] was 84.2% and the viability, T/C [33] was 87.3%. It also gave a viability, T/C [34] of 53%, a viability, T/C [35] of 49.5% and a viability, T/C [36] of 43.9%.
